Results as given in US20210130473A1, “TGFßR1 INHIBITOR-ASGR ANTIBODY CONJUGATES AND USES THEREOF” (Silverback Therapeutics, Inc., priority 2019, published 2021).

target: T1, ALK5 (Homo sapiens, UniProt P36897); assay: ALK5 enzyme inhibition assay (casein substrate, 10 uM ATP, 33P-ATP, filter-binding; Reaction Biology Corp); type: biochemical; conditions: Table 11
T1 construct: purchased Reaction Biology Corp (Malvern, Pa.)
T1 sequence (P36897 34-503): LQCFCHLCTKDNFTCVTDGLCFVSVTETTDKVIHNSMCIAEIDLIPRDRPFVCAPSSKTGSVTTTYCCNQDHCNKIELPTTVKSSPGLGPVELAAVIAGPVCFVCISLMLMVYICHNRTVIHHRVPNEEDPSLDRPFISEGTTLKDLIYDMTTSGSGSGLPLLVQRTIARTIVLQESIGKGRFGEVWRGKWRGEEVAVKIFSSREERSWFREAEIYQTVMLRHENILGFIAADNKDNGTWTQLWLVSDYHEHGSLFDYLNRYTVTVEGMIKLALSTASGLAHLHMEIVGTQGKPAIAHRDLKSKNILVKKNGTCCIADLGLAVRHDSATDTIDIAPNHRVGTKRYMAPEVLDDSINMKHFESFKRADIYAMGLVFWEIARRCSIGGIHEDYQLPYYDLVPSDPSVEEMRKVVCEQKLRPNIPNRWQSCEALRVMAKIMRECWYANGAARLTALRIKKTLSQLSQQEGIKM
Method: ALK5 enzyme inhibition assays were performed by Reaction Biology Corp (Malvern, Pa.). 1 mg/mL of peptide substrate (casein) and 10 uM ATP were prepared in a mixture of fresh reaction buffer. The kinase was delivered into the substrate solution which was gently mixed. Compounds in 100% DMSO were added to the kinase reaction mixture by Acoustic technology (Echo550; nanoliter range) and the mixture was incubated for 20 min at room temperature. ^33P-ATP (Specific activity 10 uCi/uL) was added into the reaction mixture to initiate the reaction and the reaction mixture was incubated for 2 hours at room temperature. Radioactivity was detected by filter-binding method and kinase activity data were expressed as the percent remaining kinase activity in test samples compared to vehicle (dimethyl sulfoxide) reactions. IC50 values and curve fits were obtained using Prism (GraphPad Software).

IC50 | Compound
100 to 1000 nM | Cc1cccc(CNCc2nc(-c3cccc(C)n3)c(-c3ccc4ncnn4c3)[nH]2)c1 [Compound 50]
0.1 to 50 nM | Cc1cccc(-c2nc(CNCCc3ccccc3F)[nH]c2-c2ccc3ncnn3c2)n1 [Compound 59]
100 to 1000 nM | Cc1cccc(-c2nc(CNCc3ccccc3-c3ccccc3CNC(=O)OC(C)(C)C)[nH]c2-c2ccc3ncnn3c2)n1 [Compound 29]
50 to 100 nM | Cc1cccc(-c2nc(CNCc3ccccc3C(C)C)[nH]c2-c2ccc3ncnn3c2)n1 [Compound 23]
0.1 to 50 nM | Cc1cccc(-c2nc(CNCc3c(Cl)cccc3Cl)[nH]c2-c2ccc3ncnn3c2)n1 [Compound 6]
100 to 1000 nM | Cc1cccc(-c2nc(CNCc3ccccc3C3CCCCC3)[nH]c2-c2ccc3ncnn3c2)n1 [Compound 43]
50 to 100 nM | COc1ccccc1CNCc1nc(-c2cccc(C)n2)c(-c2ccc3ncnn3c2)[nH]1 [Compound 17]
50 to 100 nM | Cc1cccc(-c2nc(CNCCc3ccccc3)[nH]c2-c2ccc3ncnn3c2)n1 [Compound 52]
1000 to 10000 nM | Cc1cccc(-c2nc(CN[C@@H](C)c3ccccc3)[nH]c2-c2ccc3ncnn3c2)n1 [Compound 12]
0.1 to 50 nM | Cc1cccc(-c2nc(CNCCc3c(F)cccc3F)[nH]c2-c2ccc3ncccc3c2)n1 [Compound 89]

tested on: TGFβ/SMAD Signaling Pathway SBE reporter cell line; assay: TGFb reporter assay in HEK293 SBE-LUC reporter cells (luciferase); type: cell-based; conditions: Homo sapiens, key of the table says IC50, read-out: EC50 (the source's name)
Method: TGFβ/SMAD Signaling Pathway SBE reporter cell line was obtained from BPS Bioscience. Cells are passed, expanded, and stored in liquid nitrogen as per the supplier's instructions with the exception that growth media is changed to DMEM-C with Geneticin (DMEM supplemented with 10% fetal bovine serum, 1×NEAA, 1 mM Pyruvate, 2 mM glutamine, 50 μg/mL penicillin, 50 U/mL streptomycin and 400 μg/mL of Geneticin). The assay media is MEM supplemented with 0.5% fetal bovine serum, 1×NEAA, 1 mM Pyruvate, 50 μg/mL penicillin and 50 U/mL streptomycin.
Compounds are assayed to measure their activity as ALK5 inhibitors.
The HEK293 SBE-LUC reporter cells from Example 15 were grown in DMEM-C with Geneticin (DMEM supplemented with […], 1×NEAA, 1 mM Pyruvate, 2 mM glutamine, 50 μg/mL penicillin, 50 U/mL streptomycin and 400 ug/mL of Geneticin). The assay media was MEM supplemented with 0.5% fetal bovine serum, 1×NEAA, 1 mM Pyruvate, 50 μg/mL penicillin and 50 U/mL streptomycin.
The HEK293 SBE-LUC reporter cells were harvested from the tissue culture flasks by incubation in small quantity of Versene at room temperature for three to five minutes after the media in the flask is removed and cells rinsed with PBS. Cells were counted and diluted in the assay media at ˜0.8×10^6 cells/mL then 50 uL/well were added to 96-well assay plate. Test samples (at desired concentrations diluted in assay media) were added to assay plate containing the 50 uL/well of cells (or media only), 50 uL per well, and incubated for 5-6 hours at 37° C. in a 5% CO2 humidified incubator. After that time, 15 uL of TGFb diluted to 12.5 ng/mL in the assay media was added to the plate. Controls included TGFb titration (from 25 to 0 ng/mL) without inhibitors, and media only (without cells, inhibitor or TGFb). Plates were incubated at 37° C. in a 5% CO2 humidified incubator for 18h. Luciferase substrate solution was subsequently added at 75 uL per well, incubated in dark with shaking at room temperature for 10 min, and luminescence was measured using a luminometer.

IC50 | Compound
10 to 100 nM | Cc1cccc(CNCc2nc(-c3cccc(C)n3)c(-c3ccc4ncnn4c3)[nH]2)c1 [Compound 50]
100 to 1000 nM | Cc1cccc(-c2nc(CNc3cccc4c3CCNC4)[nH]c2-c2ccc3ncnn3c2)n1 [Compound 1.4]
0.1 to 10 nM | Cc1cccc(-c2nc(CNCCc3ccccc3F)[nH]c2-c2ccc3ncnn3c2)n1 [Compound 59]
10 to 100 nM | Cc1cccc(-c2nc(CNCCc3ccnc4ccccc34)[nH]c2-c2ccc3ncnn3c2)n1 [Compound 1.60]
100 to 1000 nM | Cc1cccc(-c2nc(CNCc3ccccc3-c3ccccc3CNC(=O)OC(C)(C)C)[nH]c2-c2ccc3ncnn3c2)n1 [Compound 29]
1000 to 10000 nM | Cc1cccc(-c2nc(CNC3CCNCC3)[nH]c2-c2ccn3ncnc3c2)n1 [Compound 1.39]
0.1 to 10 nM | Cc1cccc(-c2nc(CNCc3ccccc3C(C)C)[nH]c2-c2ccc3ncnn3c2)n1 [Compound 23]
0.1 to 10 nM | Cc1cccc(-c2nc(CNCc3c(Cl)cccc3Cl)[nH]c2-c2ccc3ncnn3c2)n1 [Compound 6]
10 to 100 nM | Cc1cccc(-c2nc(CNCc3cccc4ccccc34)[nH]c2-c2ccc3ncnn3c2)n1 [Compound 1.57]
100 to 1000 nM | Cc1cccc(-c2nc(CNCc3ccccc3C3CCCCC3)[nH]c2-c2ccc3ncnn3c2)n1 [Compound 43]
10 to 100 nM | COc1ccccc1CNCc1nc(-c2cccc(C)n2)c(-c2ccc3ncnn3c2)[nH]1 [Compound 17]
0.1 to 10 nM | Cc1cccc(-c2nc(CNCCc3ccccc3)[nH]c2-c2ccc3ncnn3c2)n1 [Compound 52]
100 to 1000 nM | Cc1cccc(-c2nc(CN[C@@H](C)c3ccccc3)[nH]c2-c2ccc3ncnn3c2)n1 [Compound 12]
10 to 100 nM | Cc1cccc(-c2nc(CNC3CCCCCC3)[nH]c2-c2ccc3ncnn3c2)n1 [Compound 1.13]
10 to 100 nM | Cc1cccc(-c2nc(CNC3CCOCC3)[nH]c2-c2ccc3ncnn3c2)n1 [Compound 1.14]
100 to 1000 nM | Cc1cccc(-c2nc(CNCC3CC3)[nH]c2-c2ccc3ncnn3c2)n1 [Compound 1.8]
100 to 1000 nM | Cc1cccc(-c2nc(CNc3cccc4c3CNCC4)[nH]c2-c2ccc3ncnn3c2)n1 [Compound 1.3]
10 to 100 nM | Cc1cccc(-c2nc(CNCc3ccccc3)[nH]c2-c2ccc3c(c2)OCO3)n1 [Compound 76]
0.1 to 10 nM | Cc1cccc(-c2nc(CNCc3ccccc3)[nH]c2-c2ccc3nccnc3c2)n1 [Compound 77]
10 to 100 nM | Cc1cccc(-c2nc(CNCCc3cccc4ncccc34)[nH]c2-c2ccc3ncnn3c2)n1 [Compound 1.61]
1000 to 10000 nM | Cc1cccc(-c2nc(CNCc3ccccc3Oc3ccncc3)[nH]c2-c2ccc3ncnn3c2)n1 [Compound 55]
10 to 100 nM | Cc1cccc(-c2nc(CN[C@H]3c4ccccc4C[C@H]3O)[nH]c2-c2ccc3ncnn3c2)n1 [Compound 1.43]
10 to 100 nM | Cc1cccc(-c2nc(CN[C@@H]3c4ccccc4C[C@@H]3O)[nH]c2-c2ccc3ncnn3c2)n1 [Compound 1.44]
10 to 100 nM | Cc1cccc(-c2nc(CN3Cc4ccccc4C3=O)[nH]c2-c2ccc3ncnn3c2)n1 [Compound 1.56]
100 to 1000 nM | Cc1cccc(-c2nc(CN3CCc4ccccc4C3)[nH]c2-c2ccn3ncnc3c2)n1 [Compound 1.40]
100 to 1000 nM | Cc1cccc(-c2nc(CNC3CC3)[nH]c2-c2ccc3ncnn3c2)n1 [Compound 1.7]
10 to 100 nM | Cc1cccc(-c2nc(CNC3CCCC3)[nH]c2-c2ccc3ncnn3c2)n1 [Compound 1.11]
10 to 100 nM | Cc1cccc(-c2nc(CN[C@@H]3c4ccccc4C[C@H]3O)[nH]c2-c2ccc3ncnn3c2)n1 [Compound 1.46]

IC50 | Compound
10 to 100 nM | Cc1cccc(-c2nc(CN[C@H]3c4ccccc4C[C@@H]3O)[nH]c2-c2ccc3ncnn3c2)n1 [Compound 1.45]
100 to 1000 nM | Cc1cccc(-c2nc(CNCc3ccccc3)[nH]c2-c2ccnc3ccccc23)n1 [Compound 74]
10 to 100 nM | Cc1cccc(-c2nc(CNCc3ccccc3-c3ccccc3)[nH]c2-c2ccc3nccnc3c2)n1 [Compound 72]
1000 to 10000 nM | Cc1cccc(-c2nc(CNC3CCCNC3)[nH]c2-c2ccn3ncnc3c2)n1 (centres unmarked) [Compound 1.38]
100 to 1000 nM | Cc1cccc(-c2nc(CNC3CCC3)[nH]c2-c2ccc3ncnn3c2)n1 [Compound 1.10]
100 to 1000 nM | Cc1cccc(-c2nc(CNCc3ccc4c(c3)OCO4)[nH]c2-c2ccc3ncnn3c2)n1 [Compound 1.41]
100 to 1000 nM | Cc1cccc(-c2nc(CNCCc3c(F)cccc3F)[nH]c2-c2ccncc2)n1 [Compound 80]
10 to 100 nM | Cc1cccc(-c2nc(CNCc3cccc(Oc4ccccc4)c3)[nH]c2-c2ccc3ncnn3c2)n1 [Compound 56]
100 to 1000 nM | Cc1cccc(-c2nc(CNc3ccc4c(c3)CCNC4)[nH]c2-c2ccc3ncnn3c2)n1 [Compound 1.2]
100 to 1000 nM | Cc1cccc(-c2nc(CNCc3ccc4ccccc4c3)[nH]c2-c2ccc3ncnn3c2)n1 [Compound 1.58]
100 to 1000 nM | Cc1cccc(-c2nc(CNCc3ccccc3)[nH]c2-c2ccccn2)n1 [Compound 75]
10 to 100 nM | Cc1cccc(-c2nc(CNC3Cc4ccccc4C3)[nH]c2-c2ccc3ncnn3c2)n1 [Compound 1.27]
10 to 100 nM | Cc1cccc(-c2nc(CNC3CCCCC3)[nH]c2-c2ccc3ncnn3c2)n1 [Compound 1.12]
1000 to 10000 nM | Cc1cccc(-c2nc(C3CNC3)[nH]c2-c2ccc3ncnn3c2)n1 [Compound 1.53]
100 to 1000 nM | Cc1cccc(-c2nc(CNc3ccc4c(c3)CNCC4)[nH]c2-c2ccc3ncnn3c2)n1 [Compound 1.1]
100 to 1000 nM | Cc1cccc(-c2nc(CNCCc3c(F)cccc3F)[nH]c2-c2ccnc3ccccc23)n1 [Compound 79]
10 to 100 nM | Cc1cccc(-c2nc(CNCc3cccc(Oc4ccncc4)c3)[nH]c2-c2ccc3ncnn3c2)n1 [Compound 58]
100 to 1000 nM | Cc1cccc(-c2nc(C3CCCCN3)[nH]c2-c2ccc3ncnn3c2)n1 (centres unmarked) [Compound 1.49]
100 to 1000 nM | Cc1cccc(-c2nc(CNCc3ccccc3)[nH]c2-c2ccc3ncccc3n2)n1 [Compound 73]
10 to 100 nM | Cc1cccc(-c2nc(CNCCc3cccc4ccccc34)[nH]c2-c2ccc3ncnn3c2)n1 [Compound 1.59]
10 to 100 nM | Cc1cccc(-c2nc(CNC3CCc4ccccc43)[nH]c2-c2ccc3ncnn3c2)n1 (centres unmarked) [Compound 1.26]
10 to 100 nM | Cc1cccc(-c2nc(CNCc3cccc(Oc4cccnc4)c3)[nH]c2-c2ccc3ncnn3c2)n1 [Compound 57]
100 to 1000 nM | Cc1cccc(-c2nc(CN3CCCCC3)[nH]c2-c2ccn3ncnc3c2)n1 [Compound 1.35]
100 to 1000 nM | Cc1cccc(-c2nc(C3CCNC3)[nH]c2-c2ccc3ncnn3c2)n1 (centres unmarked) [Compound 1.50]
10 to 100 nM | Cc1cccc(-c2nc(CNCC3CCCCC3)[nH]c2-c2ccc3ncnn3c2)n1 [Compound 1.42]
100 to 1000 nM | Cc1cccc(-c2nc(CNc3cncc(CN)c3)[nH]c2-c2ccc3ncnn3c2)n1 [Compound 1.19]
0.1 to 10 nM | Cc1cccc(-c2nc(CNCCc3c(F)cccc3F)[nH]c2-c2ccc3ncccc3n2)n1 [Compound 78]
